Laboratory results from patent US9636324B2, “Use of 15-benzylidence-14-deoxy-11, 12 -dehyroandrographolide derivative in manufacture of medicaments for protecting liver and anti-hepatitis C virus” (Zhengzhou University, priority 2012, dated 2017).

Tests used:
[1] = system: mice with ConA induced liver damage; assay: ConA induced immunological liver damage model in mice; format: in vivo, Kunming mice; settings: for enzyme (ALT, AST) lowering effect compared to AD group: high dosage 0.88 mmol/kg vs AD 0.88 mmol/kg; for ability against liver lipid peroxidation compared with AD group: P<0.01 (B, C), P<0.05 (D); for protective effect against liver damage induced by ConA (summary): mice, intragastric, 3 days
Method: Kunming mice of clean grade (male, weight 20±2 g, supplied by the Laboratory Animal Center, Henan Province) are randomly divided into groups with 6 mice in each group. Bifendate (Xinchang Pharmaceutical Factory of Zhejiang Pharmaceutical Co., Ltd, 200 mg/kg) is used as positive control, andrographolide (AD) is provided by Furen Pharmaceutical Group Co., Ltd, and the test compounds are synthesized by the inventors with purities higher than 99.0%. Normal control group and model group are intragastrically given 0.5% sodium carboxymethylcellulose (CMC-Na), and test groups are given 0.5% CMC-Na suspensions with AD (0.88 mmol/kg), and low dosage (0.66 mmol/kg) and high dosage (0.88 mmol/kg) of compound A, B and C, respectively. The drugs are given for 3 days. One hour after the last administration, all mice except those in the normal control group are injected with a single dose of ConA (20 mg/kg) through the caudal vein. After 8 h, the eyeball is enucleated to collect blood, which is centrifuged at 3000 rpm for 15 min to separate serum. ALT and AST are tested according to the kit specification, respectively (Nanjing Jiancheng Bioengineering Institute). The left lobe of liver is taken to prepare 10% homogenate using physiological saline, MDA is determined according to the kit specification (Nanjing Jiancheng Bioengineering Institute). To 50 μL liver homogenate is added 2 mL of 0.5 mol/L KOH-methanol solution and kept at 50° C. water bath to isomerize for 20 minutes, then absorbance (A value) is measured at 278 nm, using the A value per mL of homogenate to represent the PGE2 content. Experimental data are expressed as average±standard deviation (X±s), analyzed with SPSS 11.5 statistic software, with P<0.05 meaning significant difference.
Kunming mice of clean grade (male, weight 20±2 g) are randomly divided into normal group, model group, bifendate (Zhejiang Wanbang Pharmaceutical Co., Ltd) positive control group (200 mg/kg), AD group (0.88 mmol/kg), low dosage group (0.66 mmol/kg) and high dosage (0.88 mmol/kg) group of compound D. ALT, AST, and MDA assay kits are purchased from Nanjing Jiancheng Bioengineering Institute. Other agents, drugs and experimental methods are the same as in EXAMPLE 1.
In experimental investigation of both models, the following grouping method is used: Kunming mice of clean grade (male, weight 20±2 g) are randomly divided into normal group, model group, bifendate group (200 mg/kg), AD group (0.88 mmol/kg), low dosage group (0.66 mmol/kg) and high dosage group (0.88 mmol/kg) of compound E, with 8 mice in each group. Other agents, drugs and experimental methods are the same as in EXAMPLE 1 and in EXAMPLE 4, respectively.

[2] = system: mice with carbon tetrachloride induced liver damage; assay: Carbon tetrachloride induced chemical liver damage model in mice; format: in vivo, Kunming mice; settings: for ALT activity in serum vs model group / AST activity in serum vs model group: dosage groups not distinguished (0.66 and 0.88 mmol/kg); for ALT activity in serum vs model group / AST activity in serum vs model group / MDA level in liver homogenate vs model group / PGE2 level in liver homogenate vs model group: P<0.01; for MDA level in liver homogenate vs model group / PGE2 level in liver homogenate vs model group: dosage groups not distinguished; for magnitude of decrease in ALT activity compared to AD group / magnitude of decrease in AST activity compared to AD group / PGE2 content compared to AD group / ability to reduce lipid peroxide level in liver homogenate compared to AD group: P<0.05; for protective effect against liver damage induced by carbon tetrachloride (summary): mice, intragastric, 3 days
Method: Kunming mice of clean grade (male, weight 20±2 g), after adaptively fed for 3 days, are randomly divided into normal group, model group, bifendate positive control group (200 mg/kg), AD group (0.88 mmol/kg), low dosage group (0.66 mmol/kg) and high dosage group (0.88 mmol/kg) of compound A, B, C and D, with 8 mice in each group. Positive group and each test group are intragastrically given with respective suspension prepared with 0.5% CMC-Na, and normal group and model group are given with 0.5% CMC-Na. The drugs are given for 3 days, and 1 h after the last administration, all mice except those in the normal group are intraperitoneally injected with a single dose of 0.3% carbon tetrachloride in peanut oil (0.1 mL/10 g). After 16 h, the eyeball of the mice in each group is enucleated to collect blood, which is centrifuged at 3000 rpm for 15 min to separate serum. ALT and AST activities are tested respectively (Nanjing Jiancheng Bioengineering Institute). The left lobe of liver is taken to prepare 10% homogenate using physiological saline, MDA (Nanjing Jiancheng Bioengineering Institute) and PGE2 contents are determined. Experimental data are expressed as average±standard deviation (X±s), analyzed with SPSS 11.5 statistic software, with P<0.05 meaning there is a significant difference. Other agents, drugs and experimental methods are the same as in EXAMPLE 1. In experimental investigation of both models, the following grouping method is used: Kunming mice of clean grade (male, weight 20±2 g) are randomly divided into normal group, model group, bifendate group (200 mg/kg), AD group (0.88 mmol/kg), low dosage group (0.66 mmol/kg) and high dosage group (0.88 mmol/kg) of compound E, with 8 mice in each group. Other agents, drugs and experimental methods are the same as in EXAMPLE 1 and in EXAMPLE 4, respectively.

[3] = system: mice with ethanol induced liver damage; assay: Ethanol induced liver damage model in mice; format: in vivo, Kunming mice
Method: Kunming mice of clean grade (male, weight 20±2 g), after adaptively fed for 3 days, are randomly divided into normal group, model group, bifendate positive control group (200 mg/kg), AD group (0.88 mmol/kg), low (0.44 mmol/kg), median (0.66 mmol/kg) and high (0.88 mmol/kg) dosage groups of compound A, and median (0.66 mmol/kg) and high (0.88 mmol/kg) dosage groups of compound B, with 8 mice in each group. Positive group and each test group are intragastrically given with respective suspension prepared with 0.5% CMC-Na, and normal group and model group are given with 0.5% CMC-Na. The drugs are given for 3 days, and 1 h after the last administration, all mice except those in the normal group are intragastrically administrated with a single dose of 50% EtOH ([…]). After 16 h, the eyeball of the mice in each group is enucleated to collect blood, which is centrifuged at 3000 rpm for 15 min to separate serum. ALT and AST activities are tested respectively (Nanjing Jiancheng Bioengineering Institute). The left lobe of liver is taken to prepare 10% homogenate using physiological saline, MDA (Nanjing Jiancheng Bioengineering Institute) content is determined. Experimental data are expressed as average±standard deviation (X±s), analyzed with SPSS 11.5 statistic software, with P<0.05 meaning there is a significant difference. Other agents, drugs and experimental methods are the same as in EXAMPLE 1.

[4] = system: bovine viral diarrhea virus (BVDV-AV69); assay: CPE observation of effects on cytopathy caused by BVDV in MDBK cells; settings: MDBK cells, BVDV-AV69; TC50 from MTT, IC50 from CPE
Method: Pharmaceutical effects of drugs of the invention against cytopathy caused by inoculation of BVDV virus are investigated using MDBK (NBL-1) cells (purchased from Chinese Academy of Science's Shanghai Center for Type Culture Collection) and bovine viral diarrhea virus (BVDV-AV69) (purchased from China Institute of Veterinary Drugs Control). Ribavirin (R; Henan RunHong Pharmaceutical Co., Ltd; batch number: E0909604) is used as positive drug control. MDBK cells are prepared as a suspension (1×10^5/mL) in RPMI1640 culture medium which contains 10% in volume fetal bovine serum (Zhejiang Tianhang Biotechnology Co., Ltd; batch number: 100524), 100 μg/mL streptomycin (Shenzheng Huayao Nanfang Pharmaceutical Co., Ltd; batch number: N09081), 100 U/mL penicillin (North China Pharmaceutical Co., Ltd; batch number: E0909604), and are seeded in 96 well plates (Costar, US) at 200 μL/well, placed in an incubator (Binder, Germany) at 37° C. with 5% CO2 to culture the cell. In 24 h when cells grow into a single layer, virus solution of 100 TCID50 (TCID50=10^−2.5) is added and incubated for 1.5 h. Maintenance medium with the drug is added at 200 μL/well after 3×PBS washes.
After digestion of MDBK cells with trypsin, cells with a concentration of 1×10^5/mL are seeded into 96 well plates at 200 μL/well, placed in an incubator at 37° C. with 5% CO2 for 24 h. After growing into a single layer, cells are attacked using 100 TCID50 (TCID50=10^−2.5) virus and incubated for 1.5 h. The virus-containing maintenance medium is discarded, and cells are washed with PBS, followed by addition of drug-containing maintenance medium with different concentrations, and incubation in 5% CO2 at 37° C. Normal cell control, virus control, drug treatment and ribavirin treatment groups are set. The cytopathy developing status is recorded everyday by observing under an inverted microscope.

[5] = high dosage 0.88 mmol/kg, P<0.01
[6] = high dosage 0.88 mmol/kg vs AD 0.88 mmol/kg
[7] = low dosage 0.66 mmol/kg vs AD 0.88 mmol/kg
[8] = dosage groups not distinguished, P<0.01

| SMILES | enzyme (ALT, AST) lowering effect compared to AD group ([1]; P<0.05) | MDA content in liver homogenate vs model group [1, 5] | PGE2 content in liver homogenate vs model group [1, 5] | ability against liver lipid peroxidation compared with AD group ([1]; high dosage 0.88 mmol/kg) | protective effect against liver damage induced by ConA (summary) [1] | ALT activity in serum vs model group [2] | AST activity in serum vs model group [2] | MDA level in liver homogenate vs model group [2] | PGE2 level in liver homogenate vs model group [2] | magnitude of decrease in ALT activity compared to AD group [2, 6] | magnitude of decrease in AST activity compared to AD group [2, 6] | magnitude of decrease in ALT activity compared to AD group [2, 7] | magnitude of decrease in AST activity compared to AD group [2, 7] | protective effect against liver damage induced by carbon tetrachloride (summary) [2] | TI value (therapy index, TC50/IC50) [4] | also measured |
| --- | --- | --- | --- | --- | --- | --- | --- | --- | --- | --- | --- | --- | --- | --- | --- | --- |
| C=C1CCC2C(C)(CO)C(O)CCC2(C)C1C=CC1=CC(=Cc2cccc(Br)c2)OC1=O (stereo not shown) [C] | better enzyme lowering effect | more obvious effect | notably reduce PGE2 content | stronger resistant ability against liver lipid peroxidation | notably protective effect | notably suppress the increase | notably suppress the increase | effectively reduce | effectively reduce | significantly better | significantly better | significantly better | significantly better | protective effect | – | PGE2 content compared to AD group ([2]; high dosage 0.88 mmol/kg): notably lower; ability to reduce lipid peroxide level in liver homogenate compared to AD group ([2]; high dosage 0.88 mmol/kg): stronger ability to reduce the lipid peroxide level |
| C=C1CCC2C(C)(CO)C(O)CCC2(C)C1C=CC1=CC(=Cc2ccccc2)OC1=O (stereo not shown) [B] | better enzyme lowering effect | more obvious effect | notably reduce PGE2 content | stronger resistant ability against liver lipid peroxidation | notably protective effect | notably suppress the increase | notably suppress the increase | effectively reduce | effectively reduce | significantly better | significantly better | significantly better | significantly better | protective effect | – | ALT activity in serum vs model group [3, 8]: effectively suppress; AST activity in serum vs model group [3, 8]: effectively suppress; MDA content in liver homogenate vs model group [3, 8]: effectively reduce the MDA content; ALT activity decreasing magnitude compared with AD group ([3]; high dosage 0.88 mmol/kg, P<0.01 (A), P<0.05 (B)): notably larger; protective effect against liver damage induced by ethanol (summary) ([3]; mice, intragastric, 3 days): protective effect; PGE2 content compared to AD group ([2]; low dosage 0.66 mmol/kg): notably lower; ability to reduce lipid peroxide level in liver homogenate compared to AD group ([2]; low dosage 0.66 mmol/kg): stronger ability to reduce the lipid peroxide level |
| NC(=O)c1ncn([C@@H]2O[C@H](CO)[C@@H](O)[C@H]2O)n1 [Ribavirin(R), Ribavirin, reference compound] | – | – | – | – | – | – | – | – | – | – | – | – | – | – | 4 | – |
| C=C1CC[C@@H]2[C@](C)(CO)[C@H](O)CC[C@@]2(C)[C@@H]1C/C=C1/C(=O)OC[C@H]1O [AD, andrographolide] | – | – | – | – | Obvious Protective Effect | – | – | – | – | – | – | – | – | Obvious Protective Effect | 14.4 | MDA content in liver homogenate vs model group ([1]; AD 0.88 mmol/kg, compounds at different dosages, P<0.05): can reduce the MDA content; liver histopathologic section (HE staining) ([1]; HE stain, 200x, FIG. 5): liver cells are slightly swelled and loosed, a portion of liver cells show spotted necrosis and degeneration, no focal necrosis involving massive liver cells is observed |
